Here are results for 1 molecule from ChEMBL document CHEMBL5352466, “New bioisosteric sulphur-containing choline kinase inhibitors with a tracked mode of action” (Eur J Med Chem, 2023).

Data set [1] deals with Choline kinase alpha (Homo sapiens, UniProt P35790). The data set can be described thus: Inhibition of human Choline kinase alpha 1 incubated for 10 mins by liquid-scintillation counter analysis. The settings on record: read-out: IC50.
Data set [2] has as its system A549. The data set can be described thus: Antiproliferative activity against human A549 cells assessed as inhibition of cell growth incubated for 72 hrs. Type of data set: functional.
In data set [3] the test system is HeLa. The experiment in a line: Antiproliferative activity against human HeLa cells assessed as inhibition of cell growth incubated for 72 hrs. Type of data set: functional.
In data set [4] the test system is HT-29. The data set can be described thus: Antiproliferative activity against human HT-29 cells assessed as inhibition of cell growth incubated for 72 hrs. Type of data set: functional.
Data set [5] deals with MDA-MB-231. The experiment in a line: Antiproliferative activity against human MDA-MB-231 cells assessed as inhibition of cell growth incubated for 72 hrs. Format: functional.
Data set [6] relates to MCF7. The experiment in a line: Antiproliferative activity against human MCF7 cells assessed as inhibition of cell growth incubated for 72 hrs. Format: functional.
A short description of data set [7]: Drug localization in cytosol of human MCF7 cells assessed as increase in fluorescence intensity at 8 uM by microscopic analysis. Format: ADME, subcellular.
Data set [8] has as its system Cell membrane. The data set can be described thus: Induction of cell membrane disruption in human MCF7 cells at 8 uM measured after 90 mins. Format: subcellular.
Data set [9] can be described thus: Drug localization in cytosol of human MCF7 cells assessed as increase in fluorescence intensity at 8 uM measured after 15 mins by microscopic analysis. Format: ADME, subcellular. To be noted: 0.25 h.

Activity calls are given as the source filed them. No cut-off for these calls is given here.

Choline kinase alpha, sequence (P35790 whole entry): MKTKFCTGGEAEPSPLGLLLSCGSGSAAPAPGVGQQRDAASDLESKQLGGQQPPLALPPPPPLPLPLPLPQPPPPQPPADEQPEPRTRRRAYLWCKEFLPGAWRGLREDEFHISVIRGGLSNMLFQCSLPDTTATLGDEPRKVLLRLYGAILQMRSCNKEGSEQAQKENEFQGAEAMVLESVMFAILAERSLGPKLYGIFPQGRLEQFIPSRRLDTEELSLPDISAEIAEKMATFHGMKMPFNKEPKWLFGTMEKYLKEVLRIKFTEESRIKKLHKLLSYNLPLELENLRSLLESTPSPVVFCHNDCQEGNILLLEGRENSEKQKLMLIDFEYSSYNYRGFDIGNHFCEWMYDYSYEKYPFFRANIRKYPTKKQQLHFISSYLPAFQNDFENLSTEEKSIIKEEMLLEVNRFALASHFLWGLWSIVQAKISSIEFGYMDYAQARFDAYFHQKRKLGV

`[Br-].[Br-].c1cc2c(s1)c(N1CCCC1)nc[n+]2Cc1ccc(SCCSc2ccc(C[n+]3cnc(N4CCCC4)c4sccc43)cc2)cc1`: the IC50 in data set [1] came to 1.35 µM. The GI50 in [2] turned out to be 0.44 µM; in [3], 10.1 µM; in data set [4] it was 2.63 µM; in data set [5], 1.63 µM; in [6], 4.34 µM. Also, the Drug uptake result in data set [7] and in [9] was “Active” in each case. Further, the outcome in data set [8] was inactive.

What is called IC50 is the point on the concentration scale where inhibition reaches its midpoint. By GI50 is commonly meant the concentration at which growth is held to half of that of the control.
